Assay results reported in PubChem BioAssay (NCI).
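Exposure lasted 48 hours, with cells grown in 96-well plates and compounds tested at five concentrations. TGI: total growth inhibition.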

Tests used:
Assay in all cases: DTP human tumour cell line panel, 48 h
SNB-19 CNS = tested on: SNB-19 CNS
NCI-H23 lung = tested on: NCI-H23 lung
DU-145 prostate = tested on: DU-145 prostate
SK-MEL-2 melanoma = tested on: SK-MEL-2 melanoma
NCI-H460 lung = tested on: NCI-H460 lung
U251 CNS = tested on: U251 CNS
ACHN renal = tested on: ACHN renal
A498 renal = tested on: A498 renal
HCT-116 colon = tested on: HCT-116 colon
MDA-MB-435 = tested on: MDA-MB-435
NCI-H226 lung = tested on: NCI-H226 lung
HT29 colon = tested on: HT29 colon
PC-3 prostate = tested on: PC-3 prostate
UO-31 renal = tested on: UO-31 renal
K-562 leukemia = tested on: K-562 leukemia
UACC-62 melanoma = tested on: UACC-62 melanoma
HCT-15 colon = tested on: HCT-15 colon
HOP-92 NSCLC = tested on: HOP-92 NSCLC
TK-10 renal = tested on: TK-10 renal
MDA-MB-231 breast = tested on: MDA-MB-231 breast
SK-MEL-28 melanoma = tested on: SK-MEL-28 melanoma
HOP-62 NSCLC = tested on: HOP-62 NSCLC
CCRF-CEM leukemia = tested on: CCRF-CEM leukemia
MDA-N = tested on: MDA-N
OVCAR-4 ovarian = tested on: OVCAR-4 ovarian
SN12C renal = tested on: SN12C renal
OVCAR-3 ovarian = tested on: OVCAR-3 ovarian
MOLT-4 leukemia = tested on: MOLT-4 leukemia
CAKI-1 renal = tested on: CAKI-1 renal
SW-620 colon = tested on: SW-620 colon
LOX IMVI melanoma = tested on: LOX IMVI melanoma
EKVX NSCLC = tested on: EKVX NSCLC
NCI/ADR-RES ovarian = tested on: NCI/ADR-RES ovarian
HS 578T breast = tested on: HS 578T breast
SR leukemia = tested on: SR leukemia
SNB-75 CNS = tested on: SNB-75 CNS
A549 NSCLC = tested on: A549 NSCLC
HCC-2998 colon = tested on: HCC-2998 colon
OVCAR-5 ovarian = tested on: OVCAR-5 ovarian
786-0 renal = tested on: 786-0 renal
BT-549 breast = tested on: BT-549 breast
KM12 colon = tested on: KM12 colon
T-47D breast = tested on: T-47D breast
M14 melanoma = tested on: M14 melanoma
IGROV1 ovarian = tested on: IGROV1 ovarian
OVCAR-8 ovarian = tested on: OVCAR-8 ovarian
UACC-257 melanoma = tested on: UACC-257 melanoma
HL-60(TB) leukemia = tested on: HL-60(TB) leukemia
COLO 205 colon = tested on: COLO 205 colon
MALME-3M melanoma = tested on: MALME-3M melanoma
SK-MEL-5 melanoma = tested on: SK-MEL-5 melanoma
NCI-H522 lung = tested on: NCI-H522 lung
RXF 393 renal = tested on: RXF 393 renal
SF-268 CNS = tested on: SF-268 CNS
SF-295 CNS = tested on: SF-295 CNS

Measured: TGI

COc1ccc(CCCNC(=O)Cc2cc(OC)c(OC)cc2CO)cc1OC
not listed: NCI-H522 lung | RXF 393 renal | SF-268 CNS | SF-295 CNS
> 100 µM: all other assays above

Cc1ccc(S(=O)(=O)NC(C(=O)O)C(C)C)cc1 (centres undefined)
not listed: HL-60(TB) leukemia | COLO 205 colon
> 100 µM: all other assays above
